Read-outs that look alike come from different tables or passages of the source.
Legend:
[1] = biological target: T1, recombinant full-length human kinase MNK1 (Homo sapiens, UniProt Q9BUB5); experiment: MNK1 radiometric kinase activity assay; type: biochemical
T1 construct: the recombinant full-length human kinase MNK1; made in house; host or cells: insect cells

[2] = biological target: T2, recombinant full length human kinase MNK2 (Homo sapiens, UniProt Q9HBH9); experiment: MNK2 radiometric kinase activity assay; type: biochemical
T2 construct: the recombinant full length human kinase MNK2; made in house; host or cells: insect cells

[3] = system: eIF4E phosphorylation at Serine 209 in HEK 293 cells; experiment: eIF4E phosphorylation in HEK 293 cells (phospho-specific antibody, fluorescent plate reader); type: cell-based; conditions: Homo sapiens, HEK293; eIF4E phosphorylation at Serine 209, 2 hours exposure; read-out: HEK 293 cell;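 note: Well-level p-eIF4E immunofluorescence normalized to DAPI signal, expressed as percent eIF4E phosphorylation, with IC50 derived from concentration-response curves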
[4] = system: IL-6 evoked grimace in ICR mice; experiment: IL-6 evoked grimace test; type: in vivo; conditions: PO 1 hr prior to IL-6 (4ET-03-053: 10 mg/kg)
Protocol: Male and female Institute for Cancer Research (ICR) mice were used in these experiments. Mice were bred in house at University of Texas at Dallas and used at between 12 and 24 weeks of age. Mice were habituated to plexiglass boxes of approximately 4×6 inches in size with openable tops. Habituation took place over 2 days with animals exposed to the boxes for at least 30 min. A blinded observer scored baseline grimacing using the method previously described by Mogil and colleagues (Langford D J, et al. “Coding of facial expressions of pain in the laboratory mouse” Nat Methods 7:447-449 (2010)). On test day, mice were given test compounds 1 hr prior to injection of interleukin 6 (human recombinant IL-6, R&D Systems) which was given at a dose of 0.1 ng in saline via an intraplantar injection as described previously (Moy J K, et al. “The MNK-eIF4E Signaling Axis Contributes to Injury-Induced Nociceptive Plasticity and the Development of Chronic Pain” J Neurosci. 37:7481-7499 (2017)). Test compounds were given orally (PO) via a flexible oral gavage canula built for mice. 4ET-03-053 is efficacious in the IL-6 evoked grimace test in mice (PO; 10 mg/kg).
Effect sizes were calculated per mouse by subtracting the baseline grimace score from the sum of the grimace scores for 1 and 3 hr time points.

[5] = Liver microsome stability; conditions: mouse, liver microsomes
P-gp (human MDR1, ABCB1) [6] = experiment: MDCK-MDR1 permeability (blood-brain barrier permeability); conditions: dog
P-gp (human MDR1, ABCB1) [7] = experiment: in vitro; conditions: dog, MDCK-MDR1
in vitro = conditions: mouse, microsomes
Wistar rats = experiment: Intravenous self-administration with oxycodone and saline regimen; type: in vivo; conditions: Wistar rats; for Mean Difference, Šídák's multiple comparisons test: numbers of infusions
Protocol: Ten male and eleven female Wistar rats (Charles River, Hollister, CA) were used in this study. Rats were housed in groups of 2-3 per cage prior to surgery, and then individually housed to protect their catheters, in a temperature-controlled (22° C.) vivarium on a 12/12h light/dark cycle (lights off at 8:00 AM) with ad libitum access to food and water. The rats acclimated to the animal facility for at least 7 days before surgery. All procedures adhered to the National Institutes of Health Guide for the Care and Use of Laboratory Animals and were approved by the Institutional Animal Care and Use Committee of The Scripps Research Institute.
For surgery, rats were anesthetized with 2 to 3% isoflurane. They were implanted with a silastic catheter (0.3 mm i.d.×0.64 mm o.d.; Dow Corning Co. Midland, MI) into the right external jugular vein under aseptic conditions. The distal end of the catheter was subcutaneously threaded to the back of the rat where it exited via a metal guide cannula (22G; Plastics One Inc., Roanoke, VA) that was anchored at the back of the rat and closed with a small plastic cap and metal cover cap to keep the inside part of the catheter clean and protected (Caine S B, et al. “Effects of dopamine D-1 and D-2 antagonists on cocaine self-administration under different schedules of reinforcement in the rat” J Pharmacol Exp Ther. 270(1):209-18 (1994); Wee S, et al. “Effects of dose and session duration on cocaine self-administration in rats” J Pharmacol Exp Ther. 320(3):1134-43 (2007); Zorrilla E P, et al. “Extended access cocaine self-administration differentially activates dorsal raphe and amygdala corticotropin-releasing factor systems in rats” Addict Biol. 17(2):300-8 (2012); Valtcheva M V, et al. “Surgical extraction of human dorsal root ganglia from organ donors and preparation of primary sensory neuron cultures” Nat Protoc. 11:1877-1888 (2016)). All incisions were closed using veterinary tissue adhesive. After surgery, rats were given analgesic (Flunixin, 2.5 mg/kg s.c.).
Rats were allowed 5-7 days for recovery prior to self-administration.
The patency of catheters in the rats was tested using an ultra-short-acting barbiturate methohexital sodium (Brevital, Eli Lilly, Indianapolis, 1N, 10 mg/mL, 2 mg/rat) every 10-12 days during the study. Generally, a total loss of muscle tone within 3 s after a methohexital sodium injection indicates the patency of a catheter. Any animal that failed the test was excluded from the study.
During experimental sessions, each rat was placed in a standard operant chamber, which was placed in a light- and sound-attenuating cubicle (28×26×20 cm; Med Associates Inc., St. Albans, VT). The front door and the back wall of the chamber were made of transparent plastic, and the other walls were opaque metal. The chamber had two retractable response levers mounted on one side of the opaque walls. A stimulus light was mounted above each lever. A drug injection was delivered by a syringe pump (Razel Scientific Instruments, Georgia, VT) located on top of the cubicle. Experimental sessions were controlled and recorded by a PC computer with custom interface and software in the experimental room.
Experimental sessions were conducted once a day, 5-7 days a week during the dark (active) cycle. After being flushed with 0.9% saline, a rat's indwelling catheter was connected to a tube that exited the chamber through a metal spring and a swivel and was connected to a syringe pump. After the drug delivery system was connected to the rat, the chamber was closed, and the 2 hr session was started immediately. The start of a session was signaled by the presentation of two response levers into the chamber. […] During an injection, stimulus lights above both levers were illuminated and lasted throughout a time-out period (20 s) that followed each injection. Pressing the left lever was counted but had no other programmed consequences. […]

[8] = system: eIF4E phosphorylation in hDRGs; experiment: p-eIF4E immunofluorescence in cultured human dorsal root ganglion cells (hDRGs); type: cell-based; conditions: OSM 10 and 50 ng/ml, 30 min
Protocol: For all human DRG experiments, DRGs were recovered from organ donors at the Southwest Transplant Alliance under an IRB approved protocol at University of Texas at Dallas. DRGs were recovered within 3 hrs of cross clamp. DRGs were recovered and taken back to the University of Texas lab where they were cultured using the protocol described previously. Cultures were grown on glass coverslips for microscopy. Coverslips were coated with poly-D-lysine and laminin to improve neuronal adherence to the coverslips. Cultures of human DRG neurons were grown for 4-7 days prior to treatment with OSM. OSM treatment was done in culture media for a period of 30 min. Cells were stained with antibodies using the same protocol as described above for HEK293 cells. Imaging was done on an Olympus FV1200 microscope and image analysis was done with CellSens software. Statistical analysis was done with Graphpad Prism V8.
Human DRG recovery and other experimental protocols were the same as described herein.

[9] = radiometric activity assay, read-out: MNK1
[10] = radiometric activity assay, read-out: MNK2

T2 sequence (Q9HBH9 whole entry): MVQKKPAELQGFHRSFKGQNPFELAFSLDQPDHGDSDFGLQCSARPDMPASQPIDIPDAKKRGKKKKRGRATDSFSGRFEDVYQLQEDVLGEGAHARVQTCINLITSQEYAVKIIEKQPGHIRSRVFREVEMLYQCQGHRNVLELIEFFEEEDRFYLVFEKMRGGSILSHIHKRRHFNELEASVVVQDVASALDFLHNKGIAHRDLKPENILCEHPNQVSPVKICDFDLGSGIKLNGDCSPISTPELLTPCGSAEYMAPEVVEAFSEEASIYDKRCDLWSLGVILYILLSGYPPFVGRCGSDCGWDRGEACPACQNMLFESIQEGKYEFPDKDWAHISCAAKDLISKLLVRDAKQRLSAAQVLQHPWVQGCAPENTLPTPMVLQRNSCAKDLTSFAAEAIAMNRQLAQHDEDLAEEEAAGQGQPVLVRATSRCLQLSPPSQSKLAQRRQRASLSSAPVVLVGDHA
T1 sequence (Q9BUB5 whole entry): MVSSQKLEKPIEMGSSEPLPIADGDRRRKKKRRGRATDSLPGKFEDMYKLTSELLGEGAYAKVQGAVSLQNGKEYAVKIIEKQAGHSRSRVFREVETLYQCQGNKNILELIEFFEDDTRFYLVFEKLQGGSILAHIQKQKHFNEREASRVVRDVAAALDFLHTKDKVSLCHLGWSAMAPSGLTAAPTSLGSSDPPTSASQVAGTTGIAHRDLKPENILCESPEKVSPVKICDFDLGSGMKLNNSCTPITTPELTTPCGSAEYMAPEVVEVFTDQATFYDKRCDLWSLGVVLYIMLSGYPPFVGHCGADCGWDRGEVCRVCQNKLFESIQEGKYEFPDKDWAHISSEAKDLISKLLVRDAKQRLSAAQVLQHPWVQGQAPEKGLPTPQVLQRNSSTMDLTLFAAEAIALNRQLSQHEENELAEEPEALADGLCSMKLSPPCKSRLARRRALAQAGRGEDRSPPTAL

Molecule: Cc1cc(Nc2cc(N)ncn2)c(=O)n2c1C(=O)NC21CCCC2(CC2)CC1 (racemic) [rac-4ET-01-027, 6″-((6-Aminopyrimidin-4-yl)amino)-8″-methyl-2″H-dispiro[cyclopropane-1,1′-cycloheptane-4′,3″-imidazo[1,5-a]pyridine]-1″,5″-dione]
- IC50 [1, 9]: 35.2 nM
- IC50 [2, 10]: 1.6 nM
- IC50 [3]: 12.6 nM
- efficacy in the IL-6 evoked grimace test [4]: efficacious
- half-life [5]: 1.11 h
- Papp A→B at 5 uM (P-gp (human MDR1, ABCB1) [6]): 52.9 ×10⁻⁶ cm/s
- Papp B→A at 5 uM (P-gp (human MDR1, ABCB1) [6]): 62.1 ×10⁻⁶ cm/s
- efflux ratio at 5 uM (P-gp (human MDR1, ABCB1) [6]): 1.2

Molecule: Cc1cc(Nc2cc(N)ncn2)c(=O)n2c1C(=O)NC21C=CC2(CC2)CC1 (stereo not shown) [4ET-01-051, 6″-((6-Aminopyrimidin-4-yl)amino)-8″-methyl-2″H-dispiro[cyclopropane-1,1′-cyclohexane-4′,3″-imidazo[1,5-a]pyridin]-2′-ene-1″,5″-dione]
- IC50 [1, 9]: 58.6 nM
- IC50 [2, 10]: 3.1 nM
- IC50 [3]: 7.3 nM
- efficacy in the IL-6 evoked grimace test [4]: efficacious
- half-life [5]: 13.9 h
- Papp A→B at 5 uM (P-gp (human MDR1, ABCB1) [6]): 22.7 ×10⁻⁶ cm/s
- Papp B→A at 5 uM (P-gp (human MDR1, ABCB1) [6]): 52.4 ×10⁻⁶ cm/s
- efflux ratio at 5 uM (P-gp (human MDR1, ABCB1) [6]): 2.3

Molecule: Cc1cc(Nc2cc(NC(=O)C3CC3)ncn2)c(=O)n2c1C(=O)NC21CCC2(CC1)CN2 (stereo not shown) [4ET-03-040, N-(6-((8″-methyl-1″,5″-dioxo-1″,5″-dihydro-2″H-dispiro[aziridine-2,1′-cyclohexane-4′,3″-imidazo[1,5-a]pyridin]-6″-yl)amino)pyrimidin-4-yl)cyclopropanecarboxamide]
- IC50 [1]: 38.6 nM
- IC50 [2]: 2 nM
- IC50 [3]: 27.4 nM
- Papp A→B at 5 uM (P-gp (human MDR1, ABCB1) [7]): 0.6 ×10⁻⁶ cm/s
- Papp B→A at 5 uM (P-gp (human MDR1, ABCB1) [7]): 1.6 ×10⁻⁶ cm/s
- half-life (in vitro): 1.28 h
- efflux ratio at 5 uM (P-gp (human MDR1, ABCB1) [6]): 2.4

Molecule: Cc1cc(Nc2cc(NC(=O)C3CC4(CNC4)C3)ncn2)c(=O)n2c1C(=O)NC21CCC2(CC2)CC1 [4ET-03-057, N-(6-((8″-methyl-1″,5″-dioxo-1″,5″-dihydro-2″H-dispiro[cyclopropane-1,1′-cyclohexane-4′,3″-imidazo[1,5-a]pyridin]-638-yl)amino)pyrimidin-4-yl)-2-azaspiro[3.3]heptane-6-carboxamide]
- IC50 [1, 9]: 61.6 nM
- IC50 [2, 10]: 3.4 nM
- IC50 [3]: 8.7 nM
- Papp A→B (P-gp (human MDR1, ABCB1) [7]): 0.3 ×10⁻⁶ cm/s
- Papp B→A (P-gp (human MDR1, ABCB1) [7]): 1.1 ×10⁻⁶ cm/s
- half-life [5]: 3.65 h

Molecule: Cc1cc(Nc2cc(NCCO)ncn2)c(=O)n2c1C(=O)NC21CCC2(CC2)CC1 [4ET-03-074, 6″-((6-((2-hydroxyethyl)amino)pyrimidin-4-yl)amino)-8″-methyl-2″H-dispiro[cyclopropane-1,1′-cyclohexane-4′,3″-imidazo[1,5-a]pyridine]-1″,5″-dione]
- IC50 [1, 9]: 45.9 nM
- IC50 [2, 10]: 3.1 nM
- IC50 [3]: 11.3 nM
- half-life [5]: 1.87 h
- Papp A→B at 5 uM (P-gp (human MDR1, ABCB1) [6]): 7.6 ×10⁻⁶ cm/s
- Papp B→A at 5 uM (P-gp (human MDR1, ABCB1) [6]): 58.1 ×10⁻⁶ cm/s
- efflux ratio at 5 uM (P-gp (human MDR1, ABCB1) [6]): 7.6

Molecule: COc1ccc2c3c1O[C@H]1C(=O)CC[C@@]4(O)[C@@H](C2)N(C)CC[C@]314 [oxycodone, oxycondone, reference compound]
- numbers of infusions, multiple comparisons test: oxycodone and subsequent saline (Wistar rats; 0.15 mg/kg oxycodone, both times this occurred): significant differences
- Mean Difference, Šídák's multiple comparisons test (Wistar rats; 0.15 mg/kg oxycodone vs. saline (3rd comparison, first occurrence)): 6.547
- Mean Difference, Šídák's multiple comparisons test (Wistar rats; 0.15 mg/kg oxycodone vs. saline (6th comparison, second occurrence)): 9.006

B1: oncostatin M (protein, UniProt P13725 26-221, looked up)
Oncostatin-M: AAIGSCSKEYRVLLGQLQKQTDLMQDTSRLLDPYIRIQGLDVPKLREHCRERPGAFPSEETLRGLGRRGFLQTLNATLGCVLHRLADLEQRLPKAQDLERSGLNIEDLEKLQMARPNILGLRNNIYCMAQLLDNSDTAEPTKAGRGASQPPTPTPASDAFQRKLEGCRFLHGYHRFMHSVGRVFSKWGESPNRSRR
- phosphorylation of eIF4E in hDRGs (stimulus) [8]: increased phosphorylation of eIF4E

From patent US20250186436A1 (4E Therapeutics, Inc., priority 2021, published 2025)
